Test results: US10729668B2, “Ketobutyrate compounds and compositions for treating age-related symptoms and diseases” (The Regents of the University of California, priority 2014, dated 2020)

Assays:
[1] = system: cardiomyocytes of neonatal rats; experiment: Catecholamine (ISO, PE) induced hypertrophy of cardiomyocytes; format: cell-based, rat; details: 1 mM
Description: In additional experiments, cardiomyocytes of neonatal rats were isolated by collagenase digestion and cultured overnight in DMEM containing 10% FCS, and then culture medium was changed to serum-free high glucose DMEM with supplement of ITS (insulin, transferrin, and sodiumselenite).
Catecholamine-induced cardiac hypertrophy.

[2] = system: ATP synthase; experiment: ATP synthase inhibition
[3] = system: C2C12 Cells; experiment: Cellular ROS measurement with H2DCF-DA; format: cell-based, mouse; details: 3 hours of drug treatment
Experimental: Measurement of ROS. C2C12 cells were seeded in 96-well plates at density of 250,000 cells/mL. Reactive oxygen species (ROS) levels were measured using 2′, 7′-dichlorodihydrofluorescein diacetate (H2DCF-DA) after 3 hours of drug treatment.

[4] = system: GMC101 C. elegans strain; experiment: Paralysis in C. elegans Alzheimer's disease model; format: in vivo, Caenorhabditis elegans; details: 4 mM, 30° C.
Experimental: Worms were age-synchronized by performing a timed egg lay for 3 hours with about 100 gravid adults and the eggs placed in a 20° C. incubator. Once the eggs had developed to the L4 stage at 42 hours post egg lay, they were picked onto NGM treatment plates containing 49.5 μM 5-fluoro-2′-deoxyuridine (FUDR, Sigma F0503) to prevent progeny production and either 4 mM α-KB or vehicle (water) control. The worms were then shifted to 30° C. to induce amyloid-beta aggregation and paralysis. […] Most paralyzed worms could still move their heads and part of their body. All worms were transferred to fresh treatment plates on Day 4.

[5] = molecular target: T1, Complex II (Mus musculus, UniProt Q8K2B3+Q9CQA3+Q9CXV1+Q9CZB0); experiment: Complex II driven coupling assay, isolated liver mitochondria (succinate and rotenone); format: biochemical; details: succinate supplemented
T1 construct: Mitochondria were isolated from mouse liver as described earlier; from tissue; host or cells: liver mitochondria of 3-month-old C57BL/6 mice
Experimental: Animal studies were performed under approved UCLA animal research protocols. Mitochondria from 3-month-old C57BL/6 mice were isolated. Briefly, livers were extracted, minced at 4° C. in MSHE+BSA (70 mM sucrose, 210 mM mannitol, 5 mM HEPES, 1 mM EGTA, and 0.5% fatty acid free BSA, pH 7.2), and rinsed several times to remove blood. All subsequent steps were performed on ice or at 4° C. The tissue was disrupted in 10 volumes of MSHE+BSA with a glass Dounce homogenizer (5-6 strokes) and the homogenate was centrifuged at 800×g for 10 minutes to remove tissue debris and nuclei. The supernatant was decanted through a cell strainer and centrifuged at 8,000×g for 10 minutes. The dark mitochondrial pellet was resuspended in MSHE+BSA and re-centrifuged at 8,000×g for 10 minutes. The final mitochondrial pellet was resuspended in 30 μl of MAS buffer (70 mM sucrose, 220 mM mannitol, 10 mM KH2PO4, 5 mM MgCl2, 2 mM HEPES, 1 mM EGTA, and 0.2% fatty acid free BSA, pH 7.2). Isolated mitochondrial respiration was measured by running coupling and electron flow assays as described. […]
Mitochondrial respiration was measured by running coupling and electron flow assays. […]

[6] = system: Isolated hearts; experiment: Isolated heart ischemia and reperfusion (LVDP); details: 30 minutes ischemia, 60 minutes reperfusion, post-ischemic administration
Experimental: Isolated hearts were subjected to 30 minutes ischemia followed by 60 minutes of reperfusion with control buffer, 2-KB, (R)-2-hydroxybutyrate, (R)-3-hydroxybutyrate (also known as ketone body), α-KG, and the Complex I inhibitor rotenone. LVDP is shown as a function of time.

[7] = system: C. elegans; experiment: Lifespan of adult C. elegans on treatment plates; format: in vivo, Caenorhabditis elegans
Experimental: C. elegans were synchronized by performing either a timed egg lay or an egg preparation (mix <100 gravid worms in 70 μl M9 buffer, 25 μl bleach, and 5 μl 10 N NaOH). Once the worms reached adulthood, they were picked onto NGM treatment plates containing 1.5% dimethyl sulfoxide (DMSO; Sigma D8418), 49.5 μM 5-fluoro-2′-deoxyuridine (FUDR, Sigma F0503), 50 μg/ml ampicillin, and α-KB (Sigma K401). Plates containing α-KB were adjusted to pH 6.0 (i.e., the same pH as the control plates) by the addition of NaOH. Treatment plates were seeded with OP50 E. coli as the C. elegans food source. […] Worms were moved to new plates every 4 days. All lifespan experiments were conducted at 20° C.

T1 sequence (Q8K2B3 43-664): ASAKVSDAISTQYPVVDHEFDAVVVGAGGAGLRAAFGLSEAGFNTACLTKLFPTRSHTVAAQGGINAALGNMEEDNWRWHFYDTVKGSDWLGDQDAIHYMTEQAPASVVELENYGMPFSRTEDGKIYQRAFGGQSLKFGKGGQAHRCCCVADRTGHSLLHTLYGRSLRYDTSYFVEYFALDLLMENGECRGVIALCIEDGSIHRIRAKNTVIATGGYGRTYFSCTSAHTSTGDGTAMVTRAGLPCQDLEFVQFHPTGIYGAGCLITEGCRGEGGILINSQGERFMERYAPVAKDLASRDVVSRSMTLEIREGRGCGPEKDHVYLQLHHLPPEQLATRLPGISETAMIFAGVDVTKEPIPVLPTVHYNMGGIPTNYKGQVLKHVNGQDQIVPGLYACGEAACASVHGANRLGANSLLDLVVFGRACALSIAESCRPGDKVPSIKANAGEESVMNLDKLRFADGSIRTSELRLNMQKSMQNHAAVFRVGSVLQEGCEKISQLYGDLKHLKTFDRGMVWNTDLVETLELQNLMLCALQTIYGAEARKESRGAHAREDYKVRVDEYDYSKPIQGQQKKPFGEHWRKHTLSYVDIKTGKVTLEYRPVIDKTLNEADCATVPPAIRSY
T1 sequence (Q9CQA3 31-282): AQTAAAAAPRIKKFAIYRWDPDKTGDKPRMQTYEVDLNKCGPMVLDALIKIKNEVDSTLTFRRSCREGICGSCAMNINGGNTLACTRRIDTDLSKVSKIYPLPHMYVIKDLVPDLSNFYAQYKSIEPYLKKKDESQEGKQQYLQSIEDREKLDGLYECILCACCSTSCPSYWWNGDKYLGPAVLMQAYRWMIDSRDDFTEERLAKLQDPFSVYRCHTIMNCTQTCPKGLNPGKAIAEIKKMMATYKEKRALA
T1 sequence (Q9CZB0 30-169): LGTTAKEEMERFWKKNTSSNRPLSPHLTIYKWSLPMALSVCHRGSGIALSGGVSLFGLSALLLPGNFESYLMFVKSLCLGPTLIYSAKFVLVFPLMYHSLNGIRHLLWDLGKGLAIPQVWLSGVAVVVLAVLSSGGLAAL
T1 sequence (Q9CXV1 57-159): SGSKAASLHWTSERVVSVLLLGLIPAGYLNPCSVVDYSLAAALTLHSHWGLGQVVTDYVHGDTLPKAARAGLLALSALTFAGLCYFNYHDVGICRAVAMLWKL

CCC(=O)C(=O)O [α-KB, α-ketobutyrate]
induced overexpression of ANF and BNP [1]: suppressed
ISO- and PE-induced hypertrophy ([1]; 48 hours): completely abolished
inhibition of ATP synthase [2]: does not inhibit
cellular ROS [3]: increases the cellular ROS
delay of paralysis compared to vehicle treated worms [4]: up to 37%
mitochondrial respiration, Complex II-driven coupling [5]: no effect
heart function after ischemia (LVDP) [6]: restores heart function after ischemia
lifespan as compared to untreated control subjects ([7]; adult C. elegans, 20° C.): extends the lifespan
potency relative to α-KG in treating, inhibiting, or reducing aging and age-related symptoms ([7]; in vivo): about 1 fold
